Assay results as given in ChEMBL document CHEMBL4152297, “Ligand-selective small molecule modulators of the constitutively active vGPCR US28” (Eur J Med Chem, 2018).
Activity calls are given as the source filed them. The calls are words filed in the database; no cut-off is given here.

How the values were obtained:
[1] = tested on: HEK293; assay: Modulation of basal activity of HCMV US28 delta300 mutant expressed in tetracyclin-induced HEK293 cells assessed as change in inositol phosphate accumulation at 10 uM using [3H]-myo-inositol by scintillation proximity assay relative to control; assay type: cell-based; conditions: Human betaherpesvirus 5
[2] = tested on: HEK293; assay: Displacement of [125I]-CCL2 from HCMV US28 expressed in HEK293 cells at 10 uM after 3 hrs by gamma counting method relative to control; assay type: cell-based; conditions: Human betaherpesvirus 5
[3] = Modulation of basal activity of HCMV US28 delta300 mutant expressed in tetracyclin-induced HEK293 cells assessed as change in inositol phosphate accumulation using [3H]-myo-inositol by scintillation proximity assay; assay type: cell-based; conditions: Human betaherpesvirus 5, HEK293
[4] = tested on: HEK293; assay: Displacement of [125I]-CX3CL1 from HCMV US28 expressed in HEK293 cells at 10 uM after 3 hrs by gamma counting method relative to control; assay type: cell-based; conditions: Human betaherpesvirus 5
[5] = Modulation of basal activity of HCMV US28 expressed in tetracyclin-induced HEK293 cells assessed as change in inositol phosphate accumulation using [3H]-myo-inositol by scintillation proximity assay; assay type: cell-based; conditions: Human betaherpesvirus 5, HEK293
[6] = tested on: HEK293; assay: Modulation of basal activity of HCMV US28 expressed in tetracyclin-induced HEK293 cells assessed as change in inositol phosphate accumulation at 10 uM using [3H]-myo-inositol by scintillation proximity assay relative to control; assay type: cell-based; conditions: Human betaherpesvirus 5
[7] = Displacement of [125I]-CCL2 from HCMV US28 expressed in HEK293 cells after 3 hrs by gamma counting method; assay type: cell-based, Human betaherpesvirus 5
[8] = tested on: HEK293; assay: Effect on inositol phosphate accumulation in HEK293 cells at 10 uM using [3H]-myo-inositol by scintillation proximity assay; assay type: cell-based; conditions: human, hek293, 10 µM
[9] = Inverse agonist activity at HCMV US28 expressed in African green monkey COS7 cells assessed as inhibition of inositol phosphate accumulation using [3H]-myo-inositol by liquid scintillation counting method; assay type: cell-based; conditions: Human betaherpesvirus 5, COS-7
[10] = tested on: HEK293; assay: Displacement of [125I]-CCL4 from HCMV US28 expressed in HEK293 cells at 10 uM after 3 hrs by gamma counting method relative to control; assay type: cell-based; conditions: Human betaherpesvirus 5
[11] = Agonist activity at HCMV US28 expressed in African green monkey COS7 cells assessed as increase in inositol phosphate accumulation using [3H]-myo-inositol after 90 mins by scintillation proximity assay; assay type: cell-based; conditions: Human betaherpesvirus 5, COS-7
[12] = Inverse agonist activity at HCMV US28 expressed in African green monkey COS7 cells assessed as inhibition of inositol phosphate accumulation using [3H]-myo-inositol after 90 mins by scintillation proximity assay; assay type: cell-based; conditions: Human betaherpesvirus 5, COS-7

EC50 ([5]; read-out: EC50) [µM] | EC50 ([5]; read-out: pEC50 (converted)) [µM] | SMILES | Efficacy [1] [%] | EC50 ([3]; read-out: EC50) [µM] | EC50 ([3]; read-out: pEC50 (converted)) [µM] | Efficacy [6] [%] | Efficacy [2] [%] | also measured
 |  | Cc1sc2nc(CN3CCN(CC(=O)NC4CCC(C)CC4)CC3)[nH]c(=O)c2c1C (centres undefined) | 118 | 1.56 | 1.58 |  |  | inhibition [2]: Active; inhibition [4]: 32%
0.089 | 0.1 | NC(=O)c1c(NC(=O)CN2CCN(Cc3ccc4c(c3)OCO4)CC2)sc2c1CCCC2 |  |  |  | -31 |  | 
 |  | O=C(CN1CCN(Cc2csc3ccccc23)CC1)NC1CCCC1 | 56 | > 10 | < 10 |  |  | 
0.344 | 0.316 | Cc1nc2ccccc2n1CC1CCN(CC(=O)Nc2cc(C(F)(F)F)ccc2Cl)CC1 |  |  |  | -43 | 24 | IC50 [7]: 2.99 µM; pIC50 [7]: 5.52
 |  | Cc1cc(C)n(CC2CCN(CC(=O)N3CCc4ccccc43)CC2)n1 | 76 | > 10 | < 10 |  |  | 
0.033 | 0.0316 | Cc1cc2ncn(CC3CCN(CC(=O)NCc4ccc(F)cc4)CC3)c2cc1C |  |  |  | -16 | 25 | IC50 [7]: > 10 µM
0.536 | 0.501 | O=C(CN1CCN(CN2C(=O)NC3(CCCCC3)C2=O)CC1)Nc1ccc(OC(F)(F)F)cc1 |  |  |  | -12 |  | 
 |  | CCc1ccc(-c2nc(CN3CCN(CC(=O)NC4CC4)CC3)cs2)cc1 | 51 | 11 | 10 |  |  | 
 |  | Cn1c(CN2CCN(CC(=O)Nc3ccc(OC(F)(F)F)cc3)CC2)nc2ccccc21 | 59 | 3.36 | 3.16 |  | 7 | 
 |  | Cc1nc2ccccc2n1CC1CCN(CC(=O)NCCc2ccccc2)CC1 | 107 | 1.8 | 2 |  |  | IC50 [7]: 5.29 µM
 |  | Cc1nc2ccccc2n1CC1CCN(Cc2ccc(F)c(F)c2)CC1 | 93 | 1.48 | 1.58 |  | 46 | IC50 [7]: 5.26 µM; pIC50 [7]: 5.28
 |  | O=C(CN1CCC(Cn2cnc3ccccc32)CC1)Nc1ccccn1 |  |  |  |  | 10 | 
 |  | NC(=O)c1ccc(NC(=O)CN2CCC(Cn3cnc4ccccc43)CC2)cc1 |  |  |  |  | -4 | 
 |  | O=C(CN1CCC(Cn2cnc3ccccc32)CC1)Nc1nc2ccc(F)cc2s1 |  |  |  |  | 20 | IC50 [7]: > 10 µM
 |  | Cc1ncc(CN2CCN(CC(=O)Nc3ccc(F)cc3)CC2)s1 |  |  |  | -20 |  | 
 |  | NC(=O)c1ccc(NC(=O)CN2CCC(Cn3c(COc4ccccc4)nc4ccccc43)CC2)cc1 | 77 | 7.96 | 7.94 |  |  | 
 |  | Cc1cc2ncn(CC3CCN(CC(=O)Nc4ccc5c(c4)OCO5)CC3)c2cc1C | 58 | 1.52 | 1.58 |  |  | 

EC50 ([5]; read-out: EC50) [µM] | EC50 ([5]; read-out: pEC50 (converted)) [µM] | SMILES | Efficacy [1] [%] | EC50 ([3]; read-out: EC50) [µM] | EC50 ([3]; read-out: pEC50 (converted)) [µM] | Efficacy [6] [%] | Efficacy [2] [%] | also measured
1.8 | 2 | COc1ccc(-c2csc(NC(=O)CN3CCN(Cc4ccc5c(c4)OCO5)CC3)n2)cc1 |  |  |  | -30 |  | 
 |  | O=C(CN1CCC(Cn2cnc3ccccc32)CC1)Nc1nccs1 |  |  |  |  | 5 | 
9.37 | 10 | O=C(CN1CCN(Cc2nc3ccccc3n2Cc2ccccc2)CC1)Nc1ccccc1F |  |  |  | -20 |  | 
 |  | Cc1nc2ccccc2n1CC1CCN(CC(=O)Nc2cccnc2)CC1 |  |  |  |  | -2 | 
 |  | O=C(CN1CCN(Cc2nc3ccccc3[nH]2)CC1)Nc1ccc(F)cc1F |  |  |  |  | -7 | 
 |  | O=C(CN1CCN(Cc2csc(-c3ccccc3)n2)CC1)Nc1ccc(F)cc1 |  |  |  | -17 |  | 
3.84 | 3.98 | CC(C(=O)Nc1sccc1C(N)=O)N1CCN(Cc2nc3ccccc3s2)CC1 (centres undefined) |  |  |  | -46 |  | 
1.57 | 1.55 to 1.58 | O=C(CN1CCC(C(=O)N2CCN(c3ccc(F)cc3)CC2)CC1)Nc1ccc(F)cc1 |  |  |  | -32 |  | 
 |  | O=C(CN1CCN(CC2CCCCC2)CC1)Nc1ccc(F)cc1 |  |  |  | -15 |  | 
 |  | Cc1ccc2nc(CN3CCN(CC(=O)Nc4ccc(F)cc4)CC3)cc(=O)n2c1 |  |  |  | -10 |  | 
0.067 | 0.0631 | N#Cc1c(CN2CCN(CC(=O)Nc3ccccc3Cl)CC2)cn2ccccc12 |  |  |  | -15 |  | 
 |  | COC(=O)c1ccc(NC(=O)CN2CCC(Cn3c(C)nc4ccccc43)CC2)cc1 | 70 | 0.884 | 0.794 |  | 32 | IC50 [7]: 9.56 µM; pIC50 [7]: 5.02
 |  | CC(=O)c1ccc(N2CCN(Cc3nc4scc(-c5ccccc5)c4c(=O)[nH]3)CC2)cc1 |  |  |  |  |  | EC50 [11]: 0.95 µM
1.14 | 1.26 | O=C(CN1CCC(Cn2c(C(F)(F)F)nc3ccccc32)CC1)Nc1ccccc1C(F)(F)F |  |  |  | -28 |  | 
 |  | CNC(=O)NC(=O)CN1CCC(Cn2c(C)nc3ccccc32)CC1 |  |  |  |  | 0 | 
19.1 | 20 | O=C(CN1CCN(Cc2nc(-c3cccc(C(F)(F)F)c3)no2)CC1)NC1CCCCC1 |  |  |  | -23 |  | 
0.985 | 1 | Cc1nc2ccccc2n1CC1CCN(CC(=O)Nc2ccc(F)cc2F)CC1 |  |  |  | -39 | 10 | inhibition [10]: 10%; inhibition [4]: inactive; EC50 [12]: 1.76 µM

SMILES | EC50 ([5]; read-out: EC50) [µM] | EC50 ([5]; read-out: pEC50 (converted)) [µM] | Efficacy [1] [%] | EC50 ([3]; read-out: EC50) [µM] | EC50 ([3]; read-out: pEC50 (converted)) [µM] | Efficacy [6] [%] | Efficacy [2] [%] | also measured
O=C(CN1CCN(Cc2cccc3ccccc23)CC1)Nc1ccc2c(c1)OCO2 | 0.039 | 0.0398 | 53 | > 10 | < 10 | -24 |  | 
Cc1nc2ccccc2n1CC1CCN(CC(=O)Nc2ccc(OC(F)(F)F)cc2)CC1 | 0.269 | 0.251 | 86 | 0.103 | 0.1 | 26 | 78 | IC50 [7]: 2.11 µM; pIC50 [7]: 5.68; inhibition [4]: 32%
O=C(CN1CCC(Cn2cnc3ccccc32)CC1)N1CCN(c2ccccc2)CC1 | 3.89 | 3.98 | 77 | 4.8 | 5.01 | -27 |  | 
O=C(CN1CCN(Cc2nc(-c3ccc(F)cc3)no2)CC1)Nc1ccc(F)cc1 | 3.04 | 3.02 to 3.16 | -23 | 1.14 | 1.26 | -54 |  | Activity [8]: Toxic
Cn1c(CN2CCN(CC(=O)Nc3ccc(F)cc3F)CC2)nc2ccccc21 | 0.133 | 0.126 | 75 | 9.88 | 10 | -15 | 6 | 
Cc1ccc(NC(=O)CN2CCC(Cn3cnc4ccccc43)CC2)cc1Cl | 0.254 | 0.251 | 50 | 0.182 | 0.2 | 21 | 71 | IC50 [7]: 1.52 µM; pIC50 [7]: 5.82
N#CC(CCCN1CCC(O)(c2ccc(Cl)cc2)CC1)(c1ccccc1)c1ccccc1 [BERLEX COMPOUND] | 10 | 10 | 99 | 0.86 | 0.794 | -31 | 60 | EC50 [9]: 3.5 µM; inhibition [10]: 65%; inhibition [4]: inactive
Cc1cc2ncn(CC3CCN(CC(=O)Nc4ccccc4C(F)(F)F)CC3)c2cc1C | 80.7 | 79.4 | 54 | 19.8 | 20 | -12 |  | 
